Consider three molecules from patent publication US12187752B2, “Solid forms and combination compositions comprising a beta-lactamase inhibitor and uses thereof” (priority 2017, dated 2025).

Read-outs that look alike come from different tables or passages of the source.

The nature of series [1]: Variable humidity XRPD analysis. The settings on record: VH-XRPD, sorption; dihydrochloride. Format: physicochemical. On the procedure:
To confirm the hypothesis of a solid form change between 40% and 0% relative humidity levels a variable humidity XRPD (VH-XRPD) analysis was performed. The sample was subjected to a humidity profile of 45-75-20-15-10-30-35-45% relative humidity levels at 30° C. At each step, two diffractograms were recorded. The first diffractogram was recorded when the target humidity was reached and the second after the sample had equilibrated for 1 hour at each humidity level. […] The most intense peaks of Form 1 (dihydrochloride monohydrate) are in the range between 9.5 and 24.5° 2θ.
The measured RH level and the kind of ongoing RH variation step (sorption or desorption) is found on the right hand side. […] Upon desorption, the material was converted between 20% and 15% relative humidity to Form 2, the anhydrous form. Upon sorption, Form 2 converted back to Form 1 between 30% and 35% relative humidity.

Series [2] in a line: Stability of aqueous solutions of combination formulation at pH 5.0. Format: physicochemical. The settings on record: pH 5.0 at 25° C., 24 hours.
Series [3] can be described thus: In vitro human serum protein binding. The settings on record: human. Format: in vitro ADME. An excerpt:
(§1) The results from in vitro and in vivo nonclinical PK/PD studies, the human PK data collected in the Phase 1 Study, and human plasma binding data were used to determine human therapeutic doses required for PK/PD target attainment.

In another series the test system is human serum protein. The experiment in a line: In vitro human serum protein binding. Format: in vitro ADME.
Excerpt: as §1

A short description of series [4]: Polymorph and hydrate screen: physical stability of solid forms (AAC, drying). Format: physicochemical. To be noted: 40° C. and 75% RH for 2 days. The protocol:
The solids obtained from the various crystallization experiments were analyzed by High Throughput XRPD (HT-XRPD). If relevant, the mother liquors were allowed to evaporate completely, and the remaining solids were analyzed by HT-XRPD. Subsequently, all solids were exposed to accelerated aging conditions for 48 hours at 40° C. and 75% RH (AAC).
From the polymorph screen, four novel diffractograms were identified in addition to the two known forms of Compound 1-dihydrochloride, Form 1 and Form 2. Form 1 was the most abundant solid form found in this polymorph screen. The novel diffractograms were designated Forms 3, 4, 5 and 6. All these forms were found with low frequency and were poorly crystalline. […] The HT-XRPD patterns of the new Forms 3, 4, 5 and 6 are shown in FIG. 12, FIG. 13, FIG. 14, and FIG. 15, respectively.
After completion of the equilibration time, the remaining solids were analyzed by HT-XRPD dry under ambient conditions and dried under vacuum. The mother liquors were analyzed by Karl Fisher titration for water content determination. […] The solutions from these experiments were evaporated under vacuum (200 mBar) and the obtained dried solids analyzed by HT-XRPD. All the solids were then exposed to 40° C. and 75% RH for two days.

Series [5] is described as follows: Human pharmacokinetic and PK/PD target attainment estimates. Format: in vivo.
Excerpt: as §1

Series [6] can be described thus: Aqueous solubility as a function of pH (phosphate buffers, HPLC-UV). The series is classed as physicochemical. The settings on record: aqueous buffer, thermodynamic from solid; for solubility at 4 h: read-out: Conc. (mg/ml) 4 hours; for solubility thermodynamic at 24 h: read-out: Conc. (mg/ml) 24 hours. On the procedure: A known amount of Compound 1 was weighed directly into 5 ml vials and 1 ml of each phosphate buffer was added; the solutions obtained were kept at controlled temperature (25° C.) and magnetically stirred up to 24 hours. Aliquots of obtained suspensions or solutions were centrifuged (14000 rpm 10 minutes) and withdrawn at two predefined time points (4 hours and 24 hours) appropriately diluted and analyzed by HPLC-UV using the analytical method parameters summarized in the Table 9.

The nature of series [7]: Dynamic vapor sorption analysis. The series is classed as physicochemical. The settings on record: 25° C. The protocol: Differences in hygroscopicity (moisture uptake) of the various forms of a solid material provided a measure of their relative stability at increasing relative humidity. Moisture sorption isotherms of small samples were obtained using a DVS-1 system from Surface Measurement Systems (London, UK); this instrument is suitable for use with as little as a few milligrams of sample, with an accuracy of 0.1 μg. The following humidity profile was applied: The relative humidity was cycled from 45% to 95% (sorption), back to 0% (desorption) and to 45%, at a constant temperature of 25° C. […] Weight equilibration per step was set with a minimum holding time of 1 hour. At the end of the DVS experiments, the recovered solid material was measured by HT-XRPD. Compound 1-dihydrochloride monohydrate was analyzed by dynamic vapor sorption (FIG. 6). The material was subjected to an isothermal desorption/sorption profile starting at 45%-95%-0%-45% relative humidity levels (step 5% at low relative humidity (RH)) at 25° C. The temperature was maintained constant at approximately 25° C. for the duration of the experiment. […] It can be seen that the mass uptake is rather small and that at high humidity level Compound 1-dihydrochloride remained as Form 1. This is confirmed by the mass stability and the VH-XRPD experiment conducted (see FIG. 7). […]

The next series in a line: DSC analysis of Form 1. The settings on record: DSC trace. The series is classed as physicochemical. On the procedure:
Melting properties were obtained from DSC thermograms, recorded with a heat flux DSC822e instrument (Mettler-Toledo GmbH, Switzerland). The DSC822e was calibrated for temperature and enthalpy with a small piece of indium (melting point at 156.6 C; ΔHf=28.45 J·g−1). Samples were sealed in standard 40 μl aluminum pans, pin-holed and heated in the DSC from 25° C. to 300° C., at a heating rate of 10° C. min-1. Dry N2 gas, at a flow rate of 50 ml min−1 was used to purge the DSC equipment during measurement.
This event corresponds to the onset of dehydration of the monohydrate. This dehydration process is followed by the decomposition of the compound at about 290° C. signaled by a large endothermic event. It is concluded from this experiment that Form 1 is stable to elevated temperature, up to approximately 50° C.

A short description of series [8]: Physical stability of Compound 1-dihydrochloride at four temperature/RH conditions. The series is classed as physicochemical. To be noted: four temperature/RH conditions, 4 weeks. The protocol: A physical stability study of Compound 1-dihydrochloride (mixture of Form 1 and Form 2) was conducted. A solid sample of Compound 1-dihydrochloride was incubated under four relative humidity and temperature conditions: 5° C./ambient RH, 25° C./60% RH, 30° C./65% RH and 40° C./75% RH. At regular intervals, the compound was analyzed by HR-XRPD and TGMS. […] The water content is in line with the monohydrate nature of Compound 1-dihydrochloride Form 1. The TGMS analyses recorded for the 2 weeks and 1-month incubation is also along the 3.8% of water (1 molecule of water per molecule of API).

On to `Cl.Cl.NCCN[C@H]1CC[C@H](CC(=O)N[C@H]2Cc3cccc(C(=O)O)c3OB2O)CC1` [Form 2, (R)-3-(2-(trans-4-(2-aminoethylamino)cyclohexyl)acetamido)-2-hydroxy-3,4-dihydro-2H-benzo[e][1,2]oxaborinine-8-carboxylic acid dihydrochloride], for which the “Relative humidity at which Form 2 converts to Form 1” value in series [1] is recorded as 25-35 % RH.

As for `NCCN[C@H]1CC[C@H](CC(=O)N[C@H]2Cc3cccc(C(=O)O)c3OB2O)CC1` [Compound 1, (R)-3-(2-(trans-4-(2-aminoethylamino)cyclohexyl)acetamido)-2-hydroxy-3,4-dihydro-2H-benzo[e][1,2]oxaborinine-8-carboxylic acid], the “% present, Compound 1” value in series [2] came to 100%. The fraction unbound in series [3] is 0.63. This molecule also came in with a free fraction in the series on human serum protein of 63%. Moreover, the “Physical stability upon exposure to AAC” value in series [4] was “Stable”. Also, the results for the “Total AUC0-24” value in [5] (Dose Level 250 (q8 hr)) and in series [5] (Dose Level 500 (q8 hr)) were 123 µg·h/mL and 248 µg·h/mL, respectively. In addition, the fAUC0-24 in series [5] (Dose Level 250 (q8 hr)) was 77 µg·h/mL; in series [5] (Dose Level 500 (q8 hr)), 156 µg·h/mL.

`Cl.Cl.NCCN[C@H]1CC[C@H](CC(=O)N[C@H]2Cc3cccc(C(=O)O)c3OB2O)CC1` [Form 1, (R)-3-(2-(trans-4-(2-aminoethylamino)cyclohexyl)acetamido)-2-hydroxy-3,4-dihydro-2H-benzo[e][1,2]oxaborinine-8-carboxylic acid dihydrochloride]: the solubility at 4 h is more than 143 mg/mL in series [6] (Phosphate Buffer pH 4, pH (4 h) 3.9, 25° C.); more than 135 mg/mL in series [6] (Phosphate Buffer pH 5, pH (4 h) 4.9, 25° C.); more than 135 mg/mL in [6] (Phosphate Buffer pH 6, pH (4 h) 6.2, 25° C.); more than 133 mg/mL in series [6] (Phosphate Buffer pH 7, pH (4 h) 7.1, 25° C.); more than 127 mg/mL in series [6] (Phosphate Buffer pH 8, pH (4 h) 8.1, 25° C.); more than 109 mg/mL in series [6] (Phosphate Buffer pH 9, pH (4 h) 8.7, 25° C.). Further, the solubility thermodynamic at 24 h in [6] (Phosphate Buffer pH 4, pH (24 h) 3.9, 25° C.) turned out to be 133 mg/mL; in [6] (Phosphate Buffer pH 5, pH (24 h) 4.9, 25° C.), 107 mg/mL; in series [6] (Phosphate Buffer pH 6, pH (24 h) 6.2, 25° C.), 102 mg/mL; in series [6] (Phosphate Buffer pH 7, pH (24 h) 7.0, 25° C.) it was 87.8 mg/mL; in series [6] (Phosphate Buffer pH 8, pH (24 h) 8.1, 25° C.), 68.3 mg/mL; in series [6] (Phosphate Buffer pH 9, pH (24 h) 8.9, 25° C.) it was 61.4 mg/mL. Also, in series [7] (DVS sorption 45% RH to 95%), the “Mass uptake on exposure to increasing relative humidity” value was “rather small”. Further, the “Mass loss on desorption” value in [7] (DVS, exposure to 10, 5, and 0% RH, transformation to Form 2) was “approximately 4%”. The “Temperature up to which the form is stable (onset of dehydration)” value in “DSC analysis of Form 1” is “approximately 50 °C”. Further, the “Physical stability and hygroscopicity under the tested conditions” value in series [8] is “physically stable and non-hygroscopic”.
